# From article PMC12073402, “A Selective MAP3K1 Inhibitor Facilitates Discovery of NPM1 as a Member of the Network” (Molecules, 2025)
# Experiments:
# Test in all cases: KiNativ kinome profiling in PANC-1 lysate
# Assay type in all cases: binding
# ARAF = target: T1, ARAF (Homo sapiens, UniProt P10398); settings: Lys2
# T1 construct: endogenous in cells; host or cells: PANC-1 cell lysate
# In short: (§1)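 PANC-1 lysates were incubated with 5 μM inhibitor or DMSO, then labeled with a desthiobiotin-ATP acyl-phosphate probe that biotinylates conserved kinase lysines. Tryptic peptides were streptavidin-enriched and quantified by LC-MS/MS, reported as % change in MS signal from duplicate treated and duplicate control samples.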
# CASK = target: T2, CASK (Homo sapiens, UniProt O14936); settings: Lys1
# T2 construct: endogenous in cells; host or cells: PANC-1 cell lysate
# In short: as §1
# CDK9 = target: T3, CDK9 (Homo sapiens, UniProt P50750)
# T3 construct: endogenous in cells; host or cells: PANC-1 cell lysate
# T3 sequence (P50750 whole entry): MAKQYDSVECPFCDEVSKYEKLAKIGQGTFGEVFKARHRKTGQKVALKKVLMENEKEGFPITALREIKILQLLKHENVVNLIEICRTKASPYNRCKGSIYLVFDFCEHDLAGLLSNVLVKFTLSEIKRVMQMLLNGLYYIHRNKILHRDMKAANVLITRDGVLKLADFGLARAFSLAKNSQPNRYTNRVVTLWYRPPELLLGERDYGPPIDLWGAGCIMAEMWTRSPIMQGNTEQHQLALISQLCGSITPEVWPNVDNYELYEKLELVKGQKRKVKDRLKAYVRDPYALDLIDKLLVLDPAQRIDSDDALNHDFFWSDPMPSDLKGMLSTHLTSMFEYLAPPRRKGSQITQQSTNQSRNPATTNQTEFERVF
# In short: as §1
# CK1g3 = target: T4, CK1g3 (Homo sapiens, UniProt Q9Y6M4); settings: Lys2
# T4 construct: endogenous in cells; host or cells: PANC-1 cell lysate
# In short: as §1
# CaMK2d = target: T5, CaMK2d (Homo sapiens, UniProt Q13557); settings: Lys1
# T5 construct: endogenous in cells; host or cells: PANC-1 cell lysate
# In short: as §1
# HCK = target: T6, HCK (Homo sapiens, UniProt P08631)
# T6 construct: we opted to conduct a kinome screen (KiNativ) in PANC-1 cell lysates; endogenous in cells; host or cells: PANC-1 cell lysate
# T6 sequence (P08631 whole entry): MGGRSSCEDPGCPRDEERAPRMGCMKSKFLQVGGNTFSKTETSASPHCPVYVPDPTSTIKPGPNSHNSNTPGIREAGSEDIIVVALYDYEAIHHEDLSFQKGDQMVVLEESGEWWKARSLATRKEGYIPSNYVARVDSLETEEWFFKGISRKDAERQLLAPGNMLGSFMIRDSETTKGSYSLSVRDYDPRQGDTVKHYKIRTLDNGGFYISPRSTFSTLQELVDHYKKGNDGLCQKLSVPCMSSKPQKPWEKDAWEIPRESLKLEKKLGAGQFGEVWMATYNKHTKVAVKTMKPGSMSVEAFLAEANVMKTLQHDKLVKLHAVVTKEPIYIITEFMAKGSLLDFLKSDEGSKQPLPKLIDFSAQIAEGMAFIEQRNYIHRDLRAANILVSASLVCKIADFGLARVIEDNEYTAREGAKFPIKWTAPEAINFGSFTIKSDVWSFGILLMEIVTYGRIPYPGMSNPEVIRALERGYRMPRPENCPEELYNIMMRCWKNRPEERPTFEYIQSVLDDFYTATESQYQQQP
# In short: as §1
# JAK1 domain2 = target: T7, JAK1 domain2 (Homo sapiens, UniProt P23458)
# T7 construct: we opted to conduct a kinome screen (KiNativ) in PANC-1 cell lysates; endogenous in cells; host or cells: PANC-1 cell lysate
# T7 sequence (P23458 whole entry, the tested form may be a part): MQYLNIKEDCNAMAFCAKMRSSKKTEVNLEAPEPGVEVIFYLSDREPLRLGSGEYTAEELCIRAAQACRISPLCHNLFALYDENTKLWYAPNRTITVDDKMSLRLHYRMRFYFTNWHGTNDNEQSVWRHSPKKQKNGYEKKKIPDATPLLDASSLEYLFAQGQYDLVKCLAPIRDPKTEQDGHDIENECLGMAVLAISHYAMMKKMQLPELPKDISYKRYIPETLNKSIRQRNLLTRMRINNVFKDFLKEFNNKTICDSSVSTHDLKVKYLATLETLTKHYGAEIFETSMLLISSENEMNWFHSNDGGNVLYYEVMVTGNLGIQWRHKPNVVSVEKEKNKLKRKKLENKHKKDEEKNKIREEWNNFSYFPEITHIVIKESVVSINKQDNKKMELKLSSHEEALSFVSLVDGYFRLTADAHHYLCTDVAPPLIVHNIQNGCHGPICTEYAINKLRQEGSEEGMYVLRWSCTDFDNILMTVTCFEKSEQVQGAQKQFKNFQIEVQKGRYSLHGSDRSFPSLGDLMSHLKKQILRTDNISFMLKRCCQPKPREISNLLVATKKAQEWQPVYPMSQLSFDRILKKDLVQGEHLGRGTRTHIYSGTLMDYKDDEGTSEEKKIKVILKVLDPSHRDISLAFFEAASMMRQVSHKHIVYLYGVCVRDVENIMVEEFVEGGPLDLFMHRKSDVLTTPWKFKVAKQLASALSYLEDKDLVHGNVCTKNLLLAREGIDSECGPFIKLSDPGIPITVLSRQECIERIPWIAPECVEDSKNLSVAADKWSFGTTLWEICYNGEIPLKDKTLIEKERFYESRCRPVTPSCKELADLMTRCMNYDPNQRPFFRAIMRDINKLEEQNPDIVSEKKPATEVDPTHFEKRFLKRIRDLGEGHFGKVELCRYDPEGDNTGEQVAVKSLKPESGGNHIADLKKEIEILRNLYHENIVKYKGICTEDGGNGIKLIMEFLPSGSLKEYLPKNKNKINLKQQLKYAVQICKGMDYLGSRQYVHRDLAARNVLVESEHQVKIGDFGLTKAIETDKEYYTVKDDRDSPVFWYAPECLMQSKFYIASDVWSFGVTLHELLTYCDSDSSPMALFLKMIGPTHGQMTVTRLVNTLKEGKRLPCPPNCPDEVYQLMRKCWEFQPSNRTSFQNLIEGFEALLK
# In short: as §1
# MAP2K1, MAP2K2 = settings: 5 µM
# In short: as §1
# MAP3K15, MAP3K5, MAP3K6 = settings: 5 µM; Lys1; IAIKEIPER
# In short: as §1
# MAP3K2 = target: T8, MAP3K2 (Homo sapiens, UniProt Q9Y2U5); settings: Lys1
# T8 construct: endogenous in cells; host or cells: PANC-1 cell lysate
# In short: as §1
# MAP3K6 = target: T9, MAP3K6 (Homo sapiens, UniProt O95382)
# T9 construct: endogenous in cells; host or cells: PANC-1 cell lysate
# T9 sequence (O95382 whole entry): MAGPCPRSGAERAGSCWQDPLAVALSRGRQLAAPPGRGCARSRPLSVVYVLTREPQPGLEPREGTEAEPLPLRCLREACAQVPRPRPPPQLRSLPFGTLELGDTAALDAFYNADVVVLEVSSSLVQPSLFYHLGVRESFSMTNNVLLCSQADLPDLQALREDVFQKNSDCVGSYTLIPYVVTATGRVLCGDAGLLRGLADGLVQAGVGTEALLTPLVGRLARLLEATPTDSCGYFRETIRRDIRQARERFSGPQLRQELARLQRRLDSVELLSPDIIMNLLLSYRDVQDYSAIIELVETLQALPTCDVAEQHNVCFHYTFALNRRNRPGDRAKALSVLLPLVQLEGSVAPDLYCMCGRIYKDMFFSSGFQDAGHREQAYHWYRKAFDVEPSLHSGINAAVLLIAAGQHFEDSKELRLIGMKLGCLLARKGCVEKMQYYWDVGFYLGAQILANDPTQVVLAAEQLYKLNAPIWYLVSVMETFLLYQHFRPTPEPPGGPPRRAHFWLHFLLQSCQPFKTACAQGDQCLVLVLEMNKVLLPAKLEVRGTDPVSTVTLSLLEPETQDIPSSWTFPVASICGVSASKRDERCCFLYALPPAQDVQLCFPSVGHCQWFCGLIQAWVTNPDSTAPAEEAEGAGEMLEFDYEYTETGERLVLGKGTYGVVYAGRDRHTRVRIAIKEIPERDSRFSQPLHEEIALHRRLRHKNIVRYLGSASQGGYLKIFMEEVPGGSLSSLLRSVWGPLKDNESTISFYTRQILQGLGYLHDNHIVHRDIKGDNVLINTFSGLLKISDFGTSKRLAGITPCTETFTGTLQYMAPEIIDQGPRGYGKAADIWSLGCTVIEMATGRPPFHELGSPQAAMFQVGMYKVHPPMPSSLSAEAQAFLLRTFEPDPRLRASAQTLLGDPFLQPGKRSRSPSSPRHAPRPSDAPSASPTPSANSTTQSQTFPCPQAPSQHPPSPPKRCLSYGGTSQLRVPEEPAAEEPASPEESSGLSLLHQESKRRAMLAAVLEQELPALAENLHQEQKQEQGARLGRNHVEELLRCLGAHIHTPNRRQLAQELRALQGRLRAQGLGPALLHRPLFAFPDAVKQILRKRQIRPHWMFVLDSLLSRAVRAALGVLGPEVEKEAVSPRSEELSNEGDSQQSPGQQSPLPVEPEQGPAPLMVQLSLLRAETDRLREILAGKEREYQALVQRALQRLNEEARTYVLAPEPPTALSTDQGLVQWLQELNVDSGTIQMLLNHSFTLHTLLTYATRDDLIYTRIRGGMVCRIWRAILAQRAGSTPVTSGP
# In short: as §1
# MARK3 = target: T10, MARK3 (Homo sapiens, UniProt P27448); settings: Lys1
# T10 construct: endogenous in cells; host or cells: PANC-1 cell lysate
# In short: as §1
# MLK1 = target: T11, MLK1 (Homo sapiens, UniProt P80192); settings: Lys2
# T11 construct: endogenous in cells; host or cells: PANC-1
# In short: as §1
# MSK1 domain1 = target: T12, MSK1 domain1 (Homo sapiens, UniProt O75582); settings: Lys2
# T12 construct: endogenous in cells; host or cells: PANC-1
# In short: as §1
# PCTAIRE1, PCTAIRE3 = settings: 5 µM; Lys2; DLKPQNLLINER
# In short: as §1
# PCTAIRE2, PCTAIRE3 = settings: 5 µM; Lys1; SKLTENLVALKEIR
# In short: as §1
# PDK1 = target: T13, PDK1 (Homo sapiens, UniProt O15530); settings: Lys1
# T13 construct: endogenous in cells; host or cells: PANC-1 cell lysate
# In short: as §1
# PIK3C2B = target: T14, PIK3C2B (Homo sapiens, UniProt O00750); settings: ATP
# T14 construct: endogenous in cells; host or cells: PANC-1 cell lysate
# In short: as §1
# PIK3CA = target: T15, PIK3CA (Homo sapiens, UniProt P42336); settings: ATP
# T15 construct: endogenous in cells; host or cells: PANC-1 cell lysate
# In short: as §1
# PITSLRE = PITSLRE (Homo sapiens, UniProt P21127); settings: Lys2
# In short: as §1
# PKCa, PKCg = settings: 5 µM; Other; NLIPMDPNGLSDPYVKLK
# In short: as §1
# PKN1 = target: T16, PKN1 (Homo sapiens, UniProt Q16512)
# T16 construct: endogenous in cells; host or cells: PANC-1 cell lysate
# T16 sequence (Q16512 whole entry): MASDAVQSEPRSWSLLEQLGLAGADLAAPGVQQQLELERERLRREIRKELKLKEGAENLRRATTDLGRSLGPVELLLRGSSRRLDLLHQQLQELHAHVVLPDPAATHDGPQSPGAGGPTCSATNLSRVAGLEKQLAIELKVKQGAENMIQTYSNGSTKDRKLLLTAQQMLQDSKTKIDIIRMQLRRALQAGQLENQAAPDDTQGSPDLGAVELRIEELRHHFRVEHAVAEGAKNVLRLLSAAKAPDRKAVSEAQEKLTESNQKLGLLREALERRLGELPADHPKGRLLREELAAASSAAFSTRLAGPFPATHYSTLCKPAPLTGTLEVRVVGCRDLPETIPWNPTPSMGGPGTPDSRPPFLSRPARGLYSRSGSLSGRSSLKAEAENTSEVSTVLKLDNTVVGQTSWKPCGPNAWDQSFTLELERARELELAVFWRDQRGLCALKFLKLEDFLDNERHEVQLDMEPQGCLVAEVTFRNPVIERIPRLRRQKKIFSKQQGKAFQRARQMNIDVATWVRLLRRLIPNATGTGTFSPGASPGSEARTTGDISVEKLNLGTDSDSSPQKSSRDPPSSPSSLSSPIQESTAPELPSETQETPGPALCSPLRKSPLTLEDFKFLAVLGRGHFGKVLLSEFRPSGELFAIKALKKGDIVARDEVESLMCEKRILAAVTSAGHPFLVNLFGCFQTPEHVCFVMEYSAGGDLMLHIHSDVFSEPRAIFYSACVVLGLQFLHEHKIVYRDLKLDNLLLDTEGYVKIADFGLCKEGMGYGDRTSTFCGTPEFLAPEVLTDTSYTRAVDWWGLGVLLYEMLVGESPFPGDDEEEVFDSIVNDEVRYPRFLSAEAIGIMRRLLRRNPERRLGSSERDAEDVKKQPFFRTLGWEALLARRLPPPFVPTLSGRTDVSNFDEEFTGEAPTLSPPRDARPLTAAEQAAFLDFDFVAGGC
# In short: as §1
# PLK2 = target: T17, PLK2 (Homo sapiens, UniProt Q9NYY3); settings: Lys2
# T17 construct: endogenous in cells; host or cells: PANC-1 cell lysate
# T17 sequence (Q9NYY3 whole entry): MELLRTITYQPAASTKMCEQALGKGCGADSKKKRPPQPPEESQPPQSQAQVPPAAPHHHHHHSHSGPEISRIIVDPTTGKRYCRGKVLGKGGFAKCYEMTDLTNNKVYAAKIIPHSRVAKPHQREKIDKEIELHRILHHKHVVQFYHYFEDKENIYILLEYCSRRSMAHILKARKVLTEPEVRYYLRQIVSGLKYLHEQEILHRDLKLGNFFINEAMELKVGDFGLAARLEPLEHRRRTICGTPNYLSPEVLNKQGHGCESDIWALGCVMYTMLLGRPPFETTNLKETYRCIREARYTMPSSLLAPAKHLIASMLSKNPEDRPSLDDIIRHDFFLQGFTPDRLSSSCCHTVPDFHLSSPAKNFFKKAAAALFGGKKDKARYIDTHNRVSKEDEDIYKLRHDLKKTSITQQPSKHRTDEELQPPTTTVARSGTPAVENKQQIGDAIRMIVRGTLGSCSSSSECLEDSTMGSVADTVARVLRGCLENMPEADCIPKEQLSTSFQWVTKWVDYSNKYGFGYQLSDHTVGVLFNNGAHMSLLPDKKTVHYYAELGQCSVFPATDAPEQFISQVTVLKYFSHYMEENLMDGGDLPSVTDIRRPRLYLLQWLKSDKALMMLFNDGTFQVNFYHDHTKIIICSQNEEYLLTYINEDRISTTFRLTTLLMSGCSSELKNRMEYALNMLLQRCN
# In short: as §1
# QSK = target: T18, QSK (Homo sapiens, UniProt Q9Y2K2); settings: Lys1
# T18 construct: endogenous in cells; host or cells: PANC-1 cell lysate
# In short: as §1
# RIPK1 = target: T19, RIPK1 (Homo sapiens, UniProt Q13546); settings: Lys2
# T19 construct: endogenous in cells; host or cells: PANC-1 cell lysate
# In short: as §1
# ULK1 = target: T20, ULK1 (Homo sapiens, UniProt O75385); settings: Lys2
# T20 construct: endogenous in cells; host or cells: PANC-1 cell lysate
# In short: as §1
# p70S6K = target: T21, p70S6K (Homo sapiens, UniProt P23443); settings: Lys2
# T21 construct: endogenous in cells; host or cells: PANC-1 cell lysate
# In short: as §1
compound,measurement,setting,value
"Cn1cc(-c2cnc3ccc(NC(=O)Nc4ccc(F)c(C(F)(F)F)c4)cc3n2)cn1 [51-106, 1-(4-Fluoro-3-(trifluoromethyl)phenyl)-3-(3-(1-methyl-1H-pyrazol-4-yl)quinoxalin-6-yl)urea]",inhibition at 5 µM,ARAF,≤ 0%
same,inhibition at 5 µM,CASK,≤ 0%
same,% Inhibition,"CDK9; 5 µM, Lys2, DMKAANVLITR",NB (NB = No Binding (≤ 0))
same,inhibition at 5 µM,"CDK9; ATP Loop, […]",≤ 0%
same,inhibition at 5 µM,CK1g3,11.5%
same,inhibition at 5 µM,CaMK2d,≤ 0%
same,% Inhibition,"HCK; 5 µM, ATP Loop, EGAKFPIKWTAPEAINFGSFTIK",NB (NB = No Binding (≤ 0))
same,inhibition at 5 µM,"HCK; Lys1, […]",≤ 0%
same,% Inhibition,"JAK1 domain2; 5 µM, ATP Loop, IGDFGLTKAIETDKEYYTVK",NB (NB = No Binding (≤ 0))
same,inhibition at 5 µM,"JAK1 domain2; Lys1, […]",≤ 0%
same,% Inhibition,"MAP2K1, MAP2K2; Lys1, KLIHLEIKPAIR",NB (NB = No Binding (≤ 0))
same,% Inhibition,"MAP2K1, MAP2K2; Lys2, DVKPSNILVNSR",1.2%
same,% Inhibition,"MAP3K15, MAP3K5, MAP3K6",NB (NB = No Binding (≤ 0))
same,inhibition at 5 µM,MAP3K2,≤ 0%
same,inhibition at 5 µM,"MAP3K6; 5 µM, Lys2, […]",≤ 0%
same,inhibition of MAP3K6 (in words),"MAP3K6; 5 μM, PANC-1 lysate",did not inhibit
same,inhibition at 5 µM,MARK3,≤ 0%
same,inhibition at 5 µM,MLK1,1.5%
same,inhibition at 5 µM,MSK1 domain1,≤ 0%
same,% Inhibition,"PCTAIRE1, PCTAIRE3",4.8%
same,% Inhibition,"PCTAIRE2, PCTAIRE3",NB (NB = No Binding (≤ 0))
same,inhibition at 5 µM,PDK1,≤ 0%
same,inhibition at 5 µM,PIK3C2B,2.9%
same,inhibition at 5 µM,PIK3CA,≤ 0%
same,inhibition at 5 µM,PITSLRE,≤ 0%
same,% Inhibition,"PKCa, PKCg",NB (NB = No Binding (≤ 0))
same,inhibition at 5 µM,"PKN1; Lys1, VLLSEFRPSGELFAIKALK",≤ 0%
same,inhibition at 5 µM,"PKN1; Lys2, DLKLDNLLLDTEGYVK",14.3%
same,inhibition at 5 µM,PLK2,1.4%
same,inhibition at 5 µM,QSK,≤ 0%
same,inhibition at 5 µM,RIPK1,3.7%
same,inhibition at 5 µM,ULK1,≤ 0%
same,inhibition at 5 µM,p70S6K,≤ 0%
